The text below walks through data of PMC10699557, “A recombinant approach for stapled peptide discovery yields inhibitors of the RAD51 recombinase” (Chemical Science, 2023).

Each structure is given as a SMILES string. “Also recorded” adds a separate entry of the source. Numbered stars: 1 amine (or outer) side, 2 acyl side, 3 side chain; on linkers, the order of the positions; unused ones are H or OH. Bridge positions count the residues as written; N and C are the ends. Peptide text beside a SMILES is read from it. X1 = Nc1nc(CC[*:1])cc(CC[*:2])n1

Experiment [1] concerns RAD51 foci in U2OS cells. As to the kind of experiment: Immunofluorescence of IR-induced RAD51 foci formation. The note with it: 40 μM peptide for 1 hour, then 3 Gy IR or no radiation, 3 hours recovery, five independent experiments. Format: cell-based, human. The procedure: We monitored the ability of SP30 and SP31 to disrupt IR-induced RAD51 foci formation using IF. Cells were pre-incubated with the peptides or with vehicle (control), after which they were either treated with no radiation or with 3 Gy IR and imaged after a 3 hours recovery. We observed RAD51 foci in the absence of peptide and IR treatment, which likely reflects recombination events associated with the basal replicative stress of U2OS cells (Fig. 5 and S4 ^†). As expected, IR treatment of control cells leads to an apparent increase in the number of RAD51 foci (Fig. 5 and S4 ^†). […] We also tested whether a linear version of SP31 (L31) also affects IR-induced and baseline foci counts in five independent experiments (Fig. S5 and S6 ^†). […] It is possible that in some of the experiments the unstapled cysteines of L31 formed a disulfide bridge in the oxidising environment of cell culture, which protected it against proteolytic degradation, similarly to chemical stapling.
(A) Representative immunofluorescence images of U2OS cells incubated with SP30 (40 μM, SP30), SP31 (40 μM, SP31) or vehicle alone (control) for 1 hour, after which they were treated with 3 Gy ionising radiation (3 Gy 3 h) or no radiation (noIR) and allowed to recover for 3 hours. Cells were stained with α-RAD51 and Hoechst 33342 as indicated. Scale bar is 10 μm. […]

In experiment [2] the target is monomeric version of RAD51 (HumRadA22) (Pyrococcus furiosus, UniProt O74036). As to the kind of experiment: Fluorescence polarisation (FP) competition assay: displacement of fluorescein-labelled BRC4 repeat. The class given is binding, archaeal RadA mutant with human Rad51 surface residues. The settings on record: read-out: FP competition KD, nM, Stapled; stapled product (linker DVT or DVP as in Table 1); 100 nM HumRadA22, 10 nM BRC4-fluorescein; 20 mM CHES pH 9.5, 150 mM NaCl, 0.1% BSA, 0.1% Tween-20; KD calculated from IC50; single titration, three technical replicates per point. From the text: We prepared all stapled peptides from small-scale bacterial cultures as GB1/C-His8 fusions and cyclised them with the DVT linker. For peptides SP10, SP11, SP12 and SP15, correct stapling was confirmed by MS, showing a similar composition to SP2 (Fig. S15–S18 ^†). Thus, we confirm that the pseudo-dilution approach is robust in yielding almost exclusively the cyclised product, irrespective of whether a helical or non-helical motif is being constrained. To examine the effect of introducing a covalent staple on affinity, a mock reaction was done in parallel for each peptide by splitting the IMAC elution into two halves and adding DMSO to the mock control instead of the linker. TCEP (500 μM) was included in the mock reaction to maintain the peptide in linear form by preventing disulfide formation. The peptides were tested in a fluorescence polarisation (FP) assay monitoring the displacement of a fluorescently-labelled BRC4 repeat from a monomeric version of RAD51 (HumRadA22), as reported previously.[25] […]
Fluorescence polarisation competition assay
FP competition assay was a modified version of a protocol described previously. Fluorescein-labelled HsBRC4 probe for this assay was kindly provided by Dr Laurens Lindenburg (Hollfelder group, Department of Biochemistry, University of Cambridge). Black 384-well flat-bottom microplates (Corning, 3821) were used with a 40 μl final reaction volume in all measurements. Following buffer conditions were used: 20 mM CHES pH 9.5, 150 mM NaCl, 0.1% BSA, 0.1% Tween-20. Each reaction contained 100 nM HumRadA22 and 10 nM BRC4-fluorescein. Two-fold serial dilutions of stapled peptides were added to the reactions. A free probe control reaction containing only 10 nM BRC4-fluorescein was used to calibrate gain and focal height. FP measurements were performed on Pherastar FX or Clariostar Plus (BMG Labtech) plate readers equipped with an FP 485-520-520 optic modules. Binding curves were fitted using the four-parameter logistic model with a variable Hill slope using Prism software (Graphpad). Regression fitting was performed using the least squares optimisation algorithm.
KD values were estimated from the fitted IC 50 parameters using a previously reported

In general, Kd refers to the constant that tells how readily two partners part at equilibrium. As to `CC(C)C[C@@H]1NC(=O)[C@H](CCCCN)NC(=O)[C@H](CCCCN)NC(=O)CNC(=O)[C@H](CO)NC(=O)[C@H](C)NC(=O)[C@H]([C@@H](C)O)NC(=O)[C@H](CO)NC(=O)[C@H](Cc2ccccc2)NC(=O)CNC(=O)[C@H](CO)NC(=O)[C@@H](NC(=O)CN)CSCCc2cc(nc(N)n2)CCSC[C@@H](C(=O)N[C@@H](CCC(N)=O)C(=O)N[C@@H](CCCCN)C(=O)N[C@@H](C)C(=O)N[C@H](C(=O)N[C@@H](CCCCN)C(=O)N[C@@H](CC(C)C)C(=O)N[C@@H](Cc2ccccc2)C(=O)N[C@@H](CO)C(=O)NCC(=O)O)C(C)C)NC(=O)[C@H](C)NC(=O)[C@H](CCC(N)=O)NC(=O)[C@H]([C@@H](C)O)NC(=O)[C@H](CO)NC(=O)[C@H](C(C)C)NC(=O)[C@H](CC(N)=O)NC1=O` [SP30] (H-GCSGFSTASGKKLNVSTQACQKAVKLFSG-OH; linker 2-20 via X1), the “Effect on number of RAD51 foci” value in experiment [1] is reported as “but not SP30, significantly reduces the number of RAD51 foci”. Also, the Kd in experiment [2] is 13 nM.
As to `CC(C)C[C@@H]1NC(=O)[C@H](CCCCN)NC(=O)[C@H](CCCCN)NC(=O)CNC(=O)[C@H](CO)NC(=O)[C@H](C)NC(=O)[C@H]([C@@H](C)O)NC(=O)[C@H](CO)NC(=O)[C@H](Cc2ccccc2)NC(=O)CNC(=O)[C@H](CO)NC(=O)[C@@H](NC(=O)CNC(=O)CNC(=O)[C@H](CCCNC(=N)N)NC(=O)[C@H](CCCNC(=N)N)NC(=O)[C@H](CCCNC(=N)N)NC(=O)[C@H](CCCNC(=N)N)NC(=O)[C@H](CCCNC(=N)N)NC(=O)[C@H](CCCNC(=N)N)NC(=O)[C@H](CCCNC(=N)N)NC(=O)[C@H](CCCNC(=N)N)NC(=O)[C@H](CCCNC(=N)N)NC(=O)CN)CSCCc2cc(nc(N)n2)CCSC[C@@H](C(=O)N[C@@H](CCC(N)=O)C(=O)N[C@@H](CCCCN)C(=O)N[C@@H](C)C(=O)N[C@H](C(=O)N[C@@H](CCCCN)C(=O)N[C@@H](CC(C)C)C(=O)N[C@@H](Cc2ccccc2)C(=O)N[C@@H](CO)C(=O)NCC(=O)O)C(C)C)NC(=O)[C@H](C)NC(=O)[C@H](CCC(N)=O)NC(=O)[C@H]([C@@H](C)O)NC(=O)[C@H](CO)NC(=O)[C@H](C(C)C)NC(=O)[C@H](CC(N)=O)NC1=O` [SP31] (H-GRRRRRRRRRGGCSGFSTASGKKLNVSTQACQKAVKLFSG-OH; linker 13-31 via X1), in experiment [1], the “Effect on number of RAD51 foci” value is “significantly reduces the number of RAD51 foci in both IR-treated and untreated cells; also recorded: disrupts RAD51 foci formation”. Besides, the Kd in experiment [2] was 14 nM.
